Experimental data from ChEMBL document CHEMBL1201862, “PubChem BioAssay data set” (2004).
Activity calls are given as the source filed them.

How the values were obtained:
[1] = target: Voltage-dependent T-type calcium channel subunit alpha-1H (Homo sapiens, UniProt O95180); type: functional;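 also: channel activity triggered by adding a high calcium stimulation buffer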
[2] = inhibitors of HIV Env-driven cell fusion, dose response, cherry-pick (AID 652057); type: functional, cell-based
[3] = CEM21 lymphoblast cell cytotoxicity, dose response, cytotoxicity control for viral fusion inhibitor project, CellTiter-Glo luminescence, cherry-picked (AID 652042); type: functional, cell-based;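 also: potency for signal decrease meaning cytotoxicity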
[4] = inhibitors of clade B AD8 Env fusion, dose response, cell-based, cherry-pick (AID 652062); type: functional;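 also: luciferase signal from cell-cell fusion driven by HIV-1 clade B AD8 Env; potency is for inhibitors of fusion seen as a drop in luminescence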
HEK293 [5] = test: NOD1 signaling inhibitors, primary screen, cell-based, luminescence, uHTS (AID 1578); type: functional; conditions: Homo sapiens
HEK293 [6] = test: cells; type: functional, cell-based; conditions: Homo sapiens
HEK293 [7] = test: cells; type: functional, cell-based; conditions: Homo sapiens; remark: listed apart in the source
HEK293 [8] = test: NOD2 signaling inhibitors in MDP-stimulated cells, cell-based, uHTS, luminescence (AID 2001); type: functional; conditions: Homo sapiens
[9] = target: T1, Ubiquitin-conjugating enzyme E2 N (Homo sapiens, UniProt P61088); type: functional;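 also: Dose-response confirmation in a TR-FRET assay detecting UBC13-driven polyubiquitin chain formation, inhibition measured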
T1 sequence (P61088 whole entry): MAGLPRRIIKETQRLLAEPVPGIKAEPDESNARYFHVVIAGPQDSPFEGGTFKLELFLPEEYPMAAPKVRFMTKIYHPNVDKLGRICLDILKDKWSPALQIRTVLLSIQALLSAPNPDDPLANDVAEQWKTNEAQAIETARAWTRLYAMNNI

Aminopeptidase N = target: T2, Aminopeptidase N (Plasmodium falciparum FcB1/Columbia, UniProt O96935); test: P. falciparum M1AAP inhibitors, biochemical, fluorogenic H-Leu-NHMec substrate, 1536-well (AID 1445); parameters: species or system Plasmodium falciparum 3D7, 3D7
T2 sequence (O96935 whole entry): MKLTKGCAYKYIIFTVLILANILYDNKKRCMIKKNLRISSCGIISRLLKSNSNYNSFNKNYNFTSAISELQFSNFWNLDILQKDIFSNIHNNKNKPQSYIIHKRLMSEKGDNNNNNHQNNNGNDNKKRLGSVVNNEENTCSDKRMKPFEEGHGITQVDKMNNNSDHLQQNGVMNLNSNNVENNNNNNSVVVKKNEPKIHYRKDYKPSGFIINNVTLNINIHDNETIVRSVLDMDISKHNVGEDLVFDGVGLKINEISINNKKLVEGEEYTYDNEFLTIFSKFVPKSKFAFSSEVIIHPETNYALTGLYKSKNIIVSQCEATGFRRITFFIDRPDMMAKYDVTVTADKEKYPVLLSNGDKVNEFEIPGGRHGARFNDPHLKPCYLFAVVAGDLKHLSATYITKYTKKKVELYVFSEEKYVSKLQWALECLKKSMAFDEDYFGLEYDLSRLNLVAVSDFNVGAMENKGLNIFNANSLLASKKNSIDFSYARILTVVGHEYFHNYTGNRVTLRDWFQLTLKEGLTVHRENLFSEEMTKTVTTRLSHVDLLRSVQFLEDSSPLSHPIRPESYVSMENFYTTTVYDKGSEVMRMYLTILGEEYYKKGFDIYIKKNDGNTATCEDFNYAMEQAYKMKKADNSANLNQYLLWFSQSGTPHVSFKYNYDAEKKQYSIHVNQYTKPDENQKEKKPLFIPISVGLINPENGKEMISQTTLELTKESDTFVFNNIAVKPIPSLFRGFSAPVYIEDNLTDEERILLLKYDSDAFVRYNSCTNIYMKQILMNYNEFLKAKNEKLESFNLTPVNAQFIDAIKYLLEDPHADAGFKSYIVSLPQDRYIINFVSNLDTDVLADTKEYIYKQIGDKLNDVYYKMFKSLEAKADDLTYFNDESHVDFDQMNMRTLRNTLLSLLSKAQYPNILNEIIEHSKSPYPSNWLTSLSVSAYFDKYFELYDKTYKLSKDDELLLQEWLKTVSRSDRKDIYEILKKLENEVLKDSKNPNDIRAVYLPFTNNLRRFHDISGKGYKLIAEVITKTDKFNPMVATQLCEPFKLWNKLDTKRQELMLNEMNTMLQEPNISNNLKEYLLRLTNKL

[10] = target: T3, Replicative DNA helicase DnaB (Mycobacterium tuberculosis, UniProt P9WMR3); test: DnaB intein splicing inhibitors, dose response, biochemical, cell-free fluorescence (AID 449749); type: functional
T3 sequence (P9WMR3 whole entry): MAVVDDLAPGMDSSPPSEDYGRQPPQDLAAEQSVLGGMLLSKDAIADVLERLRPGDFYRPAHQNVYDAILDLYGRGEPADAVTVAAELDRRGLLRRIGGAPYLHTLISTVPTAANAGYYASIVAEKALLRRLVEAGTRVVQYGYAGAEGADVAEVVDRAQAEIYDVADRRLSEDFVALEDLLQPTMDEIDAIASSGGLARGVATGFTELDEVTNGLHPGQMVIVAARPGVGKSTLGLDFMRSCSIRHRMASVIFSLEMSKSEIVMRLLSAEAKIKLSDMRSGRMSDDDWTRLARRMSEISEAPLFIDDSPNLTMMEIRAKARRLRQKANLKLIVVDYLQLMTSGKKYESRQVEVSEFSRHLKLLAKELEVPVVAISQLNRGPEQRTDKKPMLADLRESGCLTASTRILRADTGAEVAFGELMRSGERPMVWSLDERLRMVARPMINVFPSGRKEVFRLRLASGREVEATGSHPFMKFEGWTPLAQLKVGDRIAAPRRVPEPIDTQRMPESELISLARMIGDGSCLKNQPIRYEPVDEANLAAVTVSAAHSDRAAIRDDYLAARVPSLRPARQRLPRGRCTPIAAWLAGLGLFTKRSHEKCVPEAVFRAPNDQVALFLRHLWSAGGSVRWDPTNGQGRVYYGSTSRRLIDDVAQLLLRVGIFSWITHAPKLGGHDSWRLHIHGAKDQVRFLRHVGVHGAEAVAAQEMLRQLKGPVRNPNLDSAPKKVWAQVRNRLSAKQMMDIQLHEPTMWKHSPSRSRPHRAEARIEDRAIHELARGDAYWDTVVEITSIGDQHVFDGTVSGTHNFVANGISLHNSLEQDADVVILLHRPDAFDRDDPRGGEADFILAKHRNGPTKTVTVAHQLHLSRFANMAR

Protein RecA = target: T4, Protein RecA (Mycobacterium tuberculosis, UniProt P9WHJ3); test: Fluorescence Cell-Free Homogeneous Dose Retest to Identify Inhibitors of RecA-Intein Splicing Activity. [Related pubchem assays (depositor defined):AID2097, AID2223, AID489010, AID492950]; type: functional
T4 sequence (P9WHJ3 whole entry): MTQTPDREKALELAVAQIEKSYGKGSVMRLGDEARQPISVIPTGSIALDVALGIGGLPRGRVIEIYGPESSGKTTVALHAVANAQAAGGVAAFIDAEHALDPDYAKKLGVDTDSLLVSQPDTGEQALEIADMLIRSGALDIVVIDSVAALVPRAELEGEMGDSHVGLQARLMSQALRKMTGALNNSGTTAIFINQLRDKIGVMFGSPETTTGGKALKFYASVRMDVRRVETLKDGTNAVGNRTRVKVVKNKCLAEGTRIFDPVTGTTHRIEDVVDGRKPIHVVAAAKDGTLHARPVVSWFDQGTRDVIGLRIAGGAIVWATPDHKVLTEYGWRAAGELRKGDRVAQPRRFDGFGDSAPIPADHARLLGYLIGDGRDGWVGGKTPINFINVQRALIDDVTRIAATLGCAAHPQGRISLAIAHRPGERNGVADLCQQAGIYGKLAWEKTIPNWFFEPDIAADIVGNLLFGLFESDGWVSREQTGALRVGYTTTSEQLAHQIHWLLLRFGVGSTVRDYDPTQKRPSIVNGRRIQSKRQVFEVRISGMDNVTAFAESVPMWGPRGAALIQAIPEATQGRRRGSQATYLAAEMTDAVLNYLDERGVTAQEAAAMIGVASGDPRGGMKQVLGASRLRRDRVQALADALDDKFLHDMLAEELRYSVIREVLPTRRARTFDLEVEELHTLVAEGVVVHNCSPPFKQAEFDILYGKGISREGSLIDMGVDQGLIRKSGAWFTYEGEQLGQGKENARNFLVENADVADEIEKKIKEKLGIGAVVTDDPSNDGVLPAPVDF

[11] = target: Glyceraldehyde-3-phosphate dehydrogenase (Homo sapiens, UniProt P04406)
[12] = target: T5, Alkaline phosphatase, tissue-nonspecific isozyme (Homo sapiens, UniProt P05186); test: human TNAP enzyme inhibitors, SAR follow-up, biochemical, luminescent, dose response (AID 1056)
T5 sequence (P05186 whole entry): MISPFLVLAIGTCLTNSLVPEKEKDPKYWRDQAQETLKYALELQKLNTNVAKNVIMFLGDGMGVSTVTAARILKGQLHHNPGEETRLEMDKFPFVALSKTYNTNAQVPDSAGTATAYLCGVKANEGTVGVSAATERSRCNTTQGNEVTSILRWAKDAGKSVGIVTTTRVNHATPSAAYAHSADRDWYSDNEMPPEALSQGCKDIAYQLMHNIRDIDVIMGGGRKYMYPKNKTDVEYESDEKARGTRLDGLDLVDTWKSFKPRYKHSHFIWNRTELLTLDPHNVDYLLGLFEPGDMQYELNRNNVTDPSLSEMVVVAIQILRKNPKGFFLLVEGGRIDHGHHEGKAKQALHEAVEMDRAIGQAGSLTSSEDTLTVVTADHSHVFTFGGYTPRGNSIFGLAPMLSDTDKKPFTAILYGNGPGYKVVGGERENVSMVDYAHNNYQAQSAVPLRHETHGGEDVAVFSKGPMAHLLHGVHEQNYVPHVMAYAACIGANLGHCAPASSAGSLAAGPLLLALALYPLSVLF

Cytochrome P450 3A4 = Cytochrome P450 3A4 (Homo sapiens, UniProt P08684); conditions: Potency;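 also: confirmatory qHTS run detecting inhibitors and substrates of CYP3A4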
[13] = THP-1 cell cytotoxicity, dose response, cytotoxicity control for non-replicating M. tuberculosis project (AID 489025); type: functional
[14] = HepG2 cell cytotoxicity, dose response, cytotoxicity control for non-replicating M. tuberculosis project (AID 489018); type: functional; conditions: Mycobacterium tuberculosis
cells = type: functional

Cytochrome P450 3A4, sequence (P08684 whole entry): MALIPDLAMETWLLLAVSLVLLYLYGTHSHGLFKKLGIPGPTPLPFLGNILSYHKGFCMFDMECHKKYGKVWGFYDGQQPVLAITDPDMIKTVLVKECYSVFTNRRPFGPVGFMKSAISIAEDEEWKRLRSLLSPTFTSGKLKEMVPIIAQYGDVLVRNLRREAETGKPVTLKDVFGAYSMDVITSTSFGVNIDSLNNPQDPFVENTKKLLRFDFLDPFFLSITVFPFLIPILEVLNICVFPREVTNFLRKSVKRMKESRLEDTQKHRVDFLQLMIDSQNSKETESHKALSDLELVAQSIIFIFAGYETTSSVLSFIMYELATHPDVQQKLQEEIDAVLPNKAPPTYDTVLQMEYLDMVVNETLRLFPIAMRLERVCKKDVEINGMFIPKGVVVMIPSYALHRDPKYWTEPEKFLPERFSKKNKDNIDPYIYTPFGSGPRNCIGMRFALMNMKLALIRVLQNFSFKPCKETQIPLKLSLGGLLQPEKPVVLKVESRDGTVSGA
Voltage-dependent T-type calcium channel subunit alpha-1H, sequence (O95180 whole entry, the tested form may be a part): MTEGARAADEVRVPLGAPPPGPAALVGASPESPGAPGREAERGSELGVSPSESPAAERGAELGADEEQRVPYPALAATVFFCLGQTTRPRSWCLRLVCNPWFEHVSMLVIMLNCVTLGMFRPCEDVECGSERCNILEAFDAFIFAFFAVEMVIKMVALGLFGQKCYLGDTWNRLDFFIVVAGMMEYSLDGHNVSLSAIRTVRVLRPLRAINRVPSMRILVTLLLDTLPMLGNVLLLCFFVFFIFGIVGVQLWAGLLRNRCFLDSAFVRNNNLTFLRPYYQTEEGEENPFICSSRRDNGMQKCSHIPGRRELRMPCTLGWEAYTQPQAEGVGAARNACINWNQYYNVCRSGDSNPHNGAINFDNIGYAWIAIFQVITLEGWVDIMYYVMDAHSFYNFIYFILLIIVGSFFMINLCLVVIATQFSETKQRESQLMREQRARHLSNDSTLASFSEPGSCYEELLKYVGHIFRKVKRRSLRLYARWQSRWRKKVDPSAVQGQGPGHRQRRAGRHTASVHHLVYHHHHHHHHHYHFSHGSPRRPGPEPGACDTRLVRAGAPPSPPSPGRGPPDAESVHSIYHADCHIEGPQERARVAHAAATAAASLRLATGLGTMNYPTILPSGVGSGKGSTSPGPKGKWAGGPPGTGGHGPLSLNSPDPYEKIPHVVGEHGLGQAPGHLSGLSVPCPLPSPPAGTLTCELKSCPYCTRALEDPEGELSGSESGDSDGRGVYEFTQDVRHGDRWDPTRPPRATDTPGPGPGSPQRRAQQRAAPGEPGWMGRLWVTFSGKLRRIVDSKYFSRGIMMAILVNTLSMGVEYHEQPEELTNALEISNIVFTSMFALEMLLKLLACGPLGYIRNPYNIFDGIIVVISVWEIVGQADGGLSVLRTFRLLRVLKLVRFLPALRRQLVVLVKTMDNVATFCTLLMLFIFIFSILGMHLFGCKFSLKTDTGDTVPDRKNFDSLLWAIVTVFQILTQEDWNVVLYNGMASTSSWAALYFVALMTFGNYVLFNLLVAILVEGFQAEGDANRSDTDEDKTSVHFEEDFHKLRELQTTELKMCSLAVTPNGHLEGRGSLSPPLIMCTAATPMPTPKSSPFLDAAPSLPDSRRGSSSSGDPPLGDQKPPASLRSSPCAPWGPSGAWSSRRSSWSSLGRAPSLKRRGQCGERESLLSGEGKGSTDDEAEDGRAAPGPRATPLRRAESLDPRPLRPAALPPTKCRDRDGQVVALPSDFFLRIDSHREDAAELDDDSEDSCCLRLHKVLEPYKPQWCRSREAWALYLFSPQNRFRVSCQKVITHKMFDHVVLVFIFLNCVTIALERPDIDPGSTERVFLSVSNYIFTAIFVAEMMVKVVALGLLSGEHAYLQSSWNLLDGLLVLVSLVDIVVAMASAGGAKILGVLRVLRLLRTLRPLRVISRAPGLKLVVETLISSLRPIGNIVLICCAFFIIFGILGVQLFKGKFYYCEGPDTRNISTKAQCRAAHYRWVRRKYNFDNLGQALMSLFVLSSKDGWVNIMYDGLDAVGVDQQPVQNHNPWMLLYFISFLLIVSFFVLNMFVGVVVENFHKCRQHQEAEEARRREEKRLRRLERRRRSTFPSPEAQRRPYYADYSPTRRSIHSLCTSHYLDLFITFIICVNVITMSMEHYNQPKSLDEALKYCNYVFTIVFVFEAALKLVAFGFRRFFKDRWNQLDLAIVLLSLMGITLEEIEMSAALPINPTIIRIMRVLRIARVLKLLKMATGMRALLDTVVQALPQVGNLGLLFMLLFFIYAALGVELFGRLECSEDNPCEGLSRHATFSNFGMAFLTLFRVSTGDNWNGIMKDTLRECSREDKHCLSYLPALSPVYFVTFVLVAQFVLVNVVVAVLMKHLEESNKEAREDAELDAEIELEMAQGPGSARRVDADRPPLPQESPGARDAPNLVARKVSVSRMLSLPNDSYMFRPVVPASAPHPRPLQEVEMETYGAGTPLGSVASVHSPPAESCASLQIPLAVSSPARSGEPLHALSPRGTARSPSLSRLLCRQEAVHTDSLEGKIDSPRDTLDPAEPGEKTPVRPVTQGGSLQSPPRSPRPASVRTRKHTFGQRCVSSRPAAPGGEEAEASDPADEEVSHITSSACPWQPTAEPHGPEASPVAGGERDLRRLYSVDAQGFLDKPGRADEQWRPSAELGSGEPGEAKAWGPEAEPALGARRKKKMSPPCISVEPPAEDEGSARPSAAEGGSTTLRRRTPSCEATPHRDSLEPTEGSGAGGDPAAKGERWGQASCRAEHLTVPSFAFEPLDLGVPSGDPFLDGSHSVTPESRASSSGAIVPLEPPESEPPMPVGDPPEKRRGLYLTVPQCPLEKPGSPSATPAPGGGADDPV
Glyceraldehyde-3-phosphate dehydrogenase, sequence (P04406 whole entry): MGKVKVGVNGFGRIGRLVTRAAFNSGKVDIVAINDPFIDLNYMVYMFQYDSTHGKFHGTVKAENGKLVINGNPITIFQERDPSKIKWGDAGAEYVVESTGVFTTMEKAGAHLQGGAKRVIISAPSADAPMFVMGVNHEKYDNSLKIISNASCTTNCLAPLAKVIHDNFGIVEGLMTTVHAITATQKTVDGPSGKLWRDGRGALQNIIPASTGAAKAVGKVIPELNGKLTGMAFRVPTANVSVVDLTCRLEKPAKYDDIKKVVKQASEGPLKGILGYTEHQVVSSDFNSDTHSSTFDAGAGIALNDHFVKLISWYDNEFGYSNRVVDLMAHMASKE

SMILES: Cc1cccc(N2CCN(C(=O)CCCSc3nc4ccccc4[nH]3)CC2)c1C
- EC50 [1]: 5.23 µM (active)
- AC50 [2]: 46.1 µM (active)
- AC50 [3]: 50.8 µM (active)
- AC50 [4]: 12.3 µM (active)

SMILES: CN(C(=O)C(C)(C)C)c1ccc(OCC(=O)N2CCc3ccccc3C2)cc1
- EC50 (HEK293 [5]): 4.6 µM (active)
- IC50 (HEK293 [6]): 12.9 µM (active)
- IC50 (HEK293 [7]): > 20 µM (inactive)
- IC50 (HEK293 [8]): 18.1 µM (inactive)

SMILES: COc1ccc(C[C@H]2CN3C(=NC[C@@H]3Cc3ccc(O)cc3)N2C[C@H](C)NC(=O)c2ccc(C)c(Br)c2)cc1
- IC50 [9]: > 20 µM (inactive)

SMILES: COc1cc(Br)c(C2C(C#N)=C(N)Oc3[nH]nc(-c4cccnc4)c32)cc1OC (stereo unspecified)
- IC50 (Aminopeptidase N): 44.6 µM (active)
- AC50 [10]: 35 µM (active)
- EC50 (Protein RecA): 8.6 µM (active)

SMILES: COc1ccc(S(=O)(=O)Nc2cccnc2)cc1OC
- IC50 [11]: > 100 µM (not active)
- IC50 [12]: > 100 µM (inactive)

SMILES: CCCN1[C@@H]2C[C@@H](O)CC[C@@H]2C[C@H]1C(=O)OC
- AC50 (Cytochrome P450 3A4): 25.1 µM (inconclusive)

SMILES: COc1ccc(-c2csc(NC(=O)C3=NN(c4ccccc4)C(=O)CC3)n2)cc1
- EC50 (HEK293 [5]): 15.7 µM (active)
- IC50 (HEK293 [6]): 5.51 µM (active)
- IC50 (HEK293 [7]): 17.5 µM (active)
- IC50 (HEK293 [8]): 5.67 µM (inactive)

SMILES: C=CCc1ccc(OCC(O)COc2ccc(CC=C)cc2OC)c(OC)c1
- EC50 [1]: 6.12 µM (active)

SMILES: COc1cc(/C=C/C(=O)c2cccs2)cc(OC)c1OC
- AC50 (Cytochrome P450 3A4): 3.16 µM (inconclusive)

SMILES: c1ccc(-c2cc3c(nc2-c2ccccc2)CCNC3)cc1
- AC50 (Cytochrome P450 3A4): 5.01 µM (inconclusive)

SMILES: Cc1ccc(-n2ncc(C(=O)NCc3ccc4c(c3)OCO4)c2NC(=O)c2ccco2)cc1C
- EC50 [1]: 1.89 µM (active)

SMILES: COc1ccc(-c2csc(NC(C)c3nc4cc(C(=O)NCCCO)ccc4n3Cc3ccc(C)cc3)n2)cc1 (stereo unspecified)
- IC50 [9]: > 20 µM (inactive)

SMILES: CC(/C=C/c1ccco1)=N\NC(=O)c1cccc(Cl)c1
- CC50 [13]: > 40 µM (active)
- CC50 [14]: > 20 µM (active)
- IC50 (cells): 6.09 µM (active)

SMILES: Clc1ccc(/C=N/Nc2nnn[nH]2)cc1
- IC50 (Aminopeptidase N): 92.8 µM (active)

SMILES: Cc1ccc(-c2cc(C(=O)O)[nH]n2)cc1
- IC50 [11]: > 100 µM (not active)
- IC50 [12]: 8.71 µM (active)

SMILES: COc1nc(N=C(N)N)nc2c(C)cccc12
- IC50 (Aminopeptidase N): 22.2 µM (active)
